Measurements reported in PubChem BioAssay (NCI).
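Tested at 5 concentrations; 48 h exposure; 96-well plates; endpoints linearly interpolated, else capped at highest concentration. TGI marks complete inhibition of growth.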

Key:
Assay in all cases: NCI tumour cell line growth inhibition, 48 h
CCRF-CEM leukemia = tested on: CCRF-CEM leukemia
OVCAR-8 ovarian = tested on: OVCAR-8 ovarian
DMS 114 small cell lung = tested on: DMS 114 small cell lung
HCT-116 colon = tested on: HCT-116 colon
A549 NSCLC = tested on: A549 NSCLC
SNB-19 CNS = tested on: SNB-19 CNS
SW-620 colon = tested on: SW-620 colon
HCC-2998 colon = tested on: HCC-2998 colon
HL-60(TB) leukemia = tested on: HL-60(TB) leukemia
HOP-18 NSCLC = tested on: HOP-18 NSCLC
OVCAR-3 ovarian = tested on: OVCAR-3 ovarian
UACC-62 melanoma = tested on: UACC-62 melanoma
DLD-1 colon = tested on: DLD-1 colon
HT29 colon = tested on: HT29 colon
K-562 leukemia = tested on: K-562 leukemia
TK-10 renal = tested on: TK-10 renal
MOLT-4 leukemia = tested on: MOLT-4 leukemia
COLO 205 colon = tested on: COLO 205 colon
M14 melanoma = tested on: M14 melanoma
MALME-3M melanoma = tested on: MALME-3M melanoma
SF-295 CNS = tested on: SF-295 CNS
HOP-62 NSCLC = tested on: HOP-62 NSCLC
SK-MEL-5 melanoma = tested on: SK-MEL-5 melanoma
CAKI-1 renal = tested on: CAKI-1 renal
SF-539 CNS = tested on: SF-539 CNS
IGROV1 ovarian = tested on: IGROV1 ovarian
786-0 renal = tested on: 786-0 renal
KM12 colon = tested on: KM12 colon
SNB-78 CNS = tested on: SNB-78 CNS
NCI-H226 lung = tested on: NCI-H226 lung
UACC-257 melanoma = tested on: UACC-257 melanoma
OVCAR-4 ovarian = tested on: OVCAR-4 ovarian
HOP-92 NSCLC = tested on: HOP-92 NSCLC
EKVX NSCLC = tested on: EKVX NSCLC
SK-MEL-2 melanoma = tested on: SK-MEL-2 melanoma
SK-OV-3 ovarian = tested on: SK-OV-3 ovarian
RPMI-8226 leukemia = tested on: RPMI-8226 leukemia
M19-MEL melanoma = tested on: M19-MEL melanoma
UO-31 renal = tested on: UO-31 renal
NCI-H460 lung = tested on: NCI-H460 lung
U251 CNS = tested on: U251 CNS
HCT-15 colon = tested on: HCT-15 colon
SF-268 CNS = tested on: SF-268 CNS
LOX IMVI melanoma = tested on: LOX IMVI melanoma
XF 498 CNS = tested on: XF 498 CNS
KM20L2 colon = tested on: KM20L2 colon
NCI-H23 lung = tested on: NCI-H23 lung
OVCAR-5 ovarian = tested on: OVCAR-5 ovarian
A498 renal = tested on: A498 renal
ACHN renal = tested on: ACHN renal
NCI-H522 lung = tested on: NCI-H522 lung
SN12C renal = tested on: SN12C renal
SK-MEL-28 melanoma = tested on: SK-MEL-28 melanoma
DMS 273 small cell lung = tested on: DMS 273 small cell lung
LXFL 529 NSCLC = tested on: LXFL 529 NSCLC
RXF 393 renal = tested on: RXF 393 renal
SR leukemia = tested on: SR leukemia
SNB-75 CNS = tested on: SNB-75 CNS

Measured: TGI

CSc1nc(NC2OC(COC(C)=O)C(OC(C)=O)C(OC(C)=O)C2OC(C)=O)c(N=C(C)C(C)=O)c(=O)[nH]1 (centres undefined)
not listed: NCI-H460 lung | U251 CNS | HCT-15 colon | SF-268 CNS | LOX IMVI melanoma | XF 498 CNS | KM20L2 colon | NCI-H23 lung | OVCAR-5 ovarian | A498 renal | ACHN renal | NCI-H522 lung | SN12C renal | SK-MEL-28 melanoma | DMS 273 small cell lung | LXFL 529 NSCLC | RXF 393 renal | SR leukemia | SNB-75 CNS
> 100 µM: all other assays above

COc1cc(C2C(Cl)C(=O)N2NC(=O)c2ccc(NC(C)=O)cc2)ccc1O (centres undefined)
not listed: HCC-2998 colon | HOP-18 NSCLC | KM12 colon | SR leukemia | SNB-75 CNS
> 100 µM: all other assays above

COc1ccc2c(c1)CC[C@@H]1C2CC[C@](C)(C#N)C1CC#N (some centres undefined)
not listed: OVCAR-8 ovarian | A549 NSCLC | SW-620 colon | HCC-2998 colon | HL-60(TB) leukemia | HOP-18 NSCLC | DLD-1 colon | TK-10 renal | SK-MEL-5 melanoma | CAKI-1 renal | SF-539 CNS | NCI-H226 lung | EKVX NSCLC | SK-MEL-2 melanoma | HCT-15 colon | LOX IMVI melanoma | XF 498 CNS | SN12C renal | DMS 273 small cell lung
> 100 µM: all other assays above

CC(C)(C)C(=O)OCC1OC(N=[N+]=[N-])C(OC(=O)C(C)(C)C)C(OC(=O)C(C)(C)C)C1OC(=O)C(C)(C)C (centres undefined)
not listed: HOP-18 NSCLC | 786-0 renal | NCI-H226 lung | M19-MEL melanoma | LOX IMVI melanoma
> 100 µM: all other assays above
